Data taken from ChEMBL document CHEMBL4382290, “Tetrahydroisoquinoline CXCR4 Antagonists Adopt a Hybrid Binding Mode within the Peptide Subpocket of the CXCR4 Receptor” (ACS Med Chem Lett, 2019).

test system: Human immunodeficiency virus 1; test: Antiviral activity against CXCR4 tropic HIV1 3B infected in human MAGI-CCR5/CXCR4 cells measured after 2 to 6 days by beta-galactosidase reporter gene assay; type: functional, organism-based; settings: Human immunodeficiency virus 1, 3B

| Compound | IC50 [nM] |
| --- | --- |
| Cc1ccc(-c2ccc3c(c2)C=C(C(=O)Nc2ccc(C[N+](C)(C)C4CCOCC4)cc2)CCC3)cc1 | > 10000 |
| NCCCCN(C[C@@H]1CCc2ccccc2N1)[C@H]1CCCc2cccnc21 | 30000 |
| NCCCCN(C[C@H]1Cc2ccccc2CN1)[C@H]1CCCc2cccnc21 | 5 |
| NCCCCN(C[C@H]1CCCCN1)[C@H]1CCCc2cccnc21 | 1120 |
| NCCCCN(C[C@H]1CCc2ccccc2N1)[C@H]1CCCc2cccnc21 | 250 |
| NCCCN(C[C@H]1Cc2ccccc2CN1)[C@H]1CCCc2cccnc21 | 380 |

Further compounds by falling IC50, results first:

| IC50 [nM] | Compound |
| --- | --- |
| 30000 | NCCCCN(C[C@@H]1NCCc2ccccc21)[C@H]1CCCc2cccnc21 |
| 6200 | NCCN(C[C@H]1Cc2ccccc2CN1)[C@H]1CCCc2cccnc21 |
| 1500 | NCCCCN(C[C@H]1Cc2ccccc2CN1)[C@H]1CCCc2ccccc21 |
| 1400 | NCCCCN(C[C@@H]1Cc2ccccc2CN1)[C@H]1CCCc2cccnc21 |
| 450 | NCCCCN(C[C@H]1NCCc2ccccc21)[C@H]1CCCc2cccnc21 |
| 170 | NCCCCCN(C[C@H]1Cc2ccccc2CN1)[C@H]1CCCc2cccnc21 |
